# Test results reported in patent US10035791B2, “Bicyclic compound and pharmaceutical composition thereof for treating stroke and use thereof” (China Medical University, priority 2016, dated 2018).
# Columns and labels:
# Bmi-1 = Bmi-1 expressions of the NSCs, Western blot; assay type: cell-based, mice
# Method: To prepare the NSCs, after removal of meninges, subventricular zones (SVZ) of lateral ventricles from adult mice brain (4 week-of-age) are aseptically isolated and dissociated as previously described (J Cell Sci 2006; 119, 4467-4474). All steps are operated under sterile conditions. Then, neurosphere culture are prepared in neurobasal (NB) medium (Gibco BRL) supplemented with 2% of B27 (Gibco BRL), 2 mM of L-glutamine (PAN Biotech), 100 U/ml of penicillin/0.1 […] of streptomycin (Gibco BRL). For maintenance and expansion of the cultures, the NB/B27 is further supplemented with 2 μg/mL of heparin (Sigma), 20 ng/mL of FGF-2 (R&D Systems) and 20 ng/mL of EGF (R&D Systems). Neurosphere cultures are maintained at 37° C. in a humidified incubator with 5% CO2. For clonal/low density cultures, primary neurospheres grown at high density are dissociated into a single cell suspension and reseeded into 96-well plates at 100 cells per ml of media and the number of newly formed neurospheres is counted after 7 days. In addition, the Bmi-1 expressions, SOX2 expressions, Nestin expressions, Musashi-1 expressions, BrdU expressions and ki-67 expressions of the newly formed neurospheres are determined by the immunofluorescence staining. […]
# The NSCs are exposed to the various dosages of the Compound 1 (0.1 μM, 1 μM, 10 μM and 100 μM) and cultured in the neurosphere culture. The HIF-1α expressions and the Bmi-1 expressions of the NSCs are detected by the Western blot analysis. […]
# In another example, the HIF-1α expressions of the NSCs are inhibited and then 1 μM of the Compound 1 is added into the medium of the NSCs. The HIF-1α expression and the Bmi-1 expressions of the NSCs are detected by the Western blot analysis. […]
# In still another example, the NSCs are exposed to 1 μM of the Compound 1 and further cultured for various lengths of time (0.5 hour, 1 hour, 4 hours, 8 hours, 16 hours and 24 hours). The HIF-1α expressions and the Bmi-1 expressions of the NSCs are detected by the Western blot analysis. […]
# ischemic rats = experiment: Volume of the infarction after cerebral ischemia, magnetic resonance imaging (MRI); assay type: in vivo, Sprague-Dawley (SD) rats
# Text: The ischemic rats are induced by an ischemia-reperfusion model to simulate transient focal cerebral ischemia in rats. Test animals are male Sprague-Dawley (SD) rats weighing 250-300 g. The rats are anesthetized with chloral hydrate (0.4 g/kg IP) and subjected to cerebral ischemia. The ischemia-reperfusion model is induced by ligations of bilateral common carotid arteries (CCAs) and a right middle cerebral artery (MCA). The bilateral CCAs are clamped with non-traumatic arterial clips, and the right MCA is ligated with an 10-0 nylon suture. After 90 minutes ischemia, the suture on the MCA and the arterial clips on CCAs are removed to allow reperfusion. Core body temperature is monitored with a thermistor probe (Hewlett-Packard Model 21090A probe, Hewlett-Packard Company, Andover, Mass.), and maintained at 37° C. with a heating pad during anesthesia. After recovery from anesthesia, rat body temperature is maintained at 37° C. with a heat lamp.
# Further, the ischemic rats are assigned into 5 groups, 4 test groups and 1 control group. The ischemic rats of the test groups are injected with 1 mg/kg of the Compound 1, 30 mg/kg of the genipin, 1 mg/kg of the Compound 1 and 100 mg/kg of 2-ME2, and 1 mg/kg of the Compound 1 and the LV-Bmi-1-sh, respectively. The ischemic rats of the control group are injected with the vehicle. At 7 days after the injection, the ischemic rats of the different groups are anesthetized, and the volume of the infarction thereof is assessed by a magnetic resonance imaging (MRI).
# HIF-1α = experiment: Nuclear translocation of the HIF-1α in the PCCs under hypoxia, double immunofluorescence; assay type: cell-based, C57BL/6 mice; details: 1 μM 2-ME2 for 16 hours, then 1% O2 for 8 hours, FIG. 6A
# Method: Test cells are primary cortical cultures (PCCs) in this example. The PCCs are prepared from cerebral cortexes of gestation day 17 embryos from C57BL/6 mice as described previously (Cell Death Differ 2008; 15: 143-151). The PCCs are maintained under serum-free conditions in neurobasal medium (Invitrogen), supplemented with B-27 supplement (2%; invitrogen), glutamine (0.5 mM; Sigma Aldrich), glutamate ([…]; Sigma Aldrich), penicillin (100 U/ml) and streptomycin ([…]; Invitrogen). At 4 days in vitro, half of the medium is removed and replaced with fresh medium without glutamate. The cultures are maintained in a humidified incubator at 37° C. with 5% CO2. At 7 days in vitro, the PCCs are used for experimentation.
# The subcellular locations of the HIF-1α and the Bmi-1 in the PCCs under hypoxia are examined by double immunofluorescence study. The PCCs are divided into three groups. One group is cultured with 21% of O2 as a control group. Another group is cultured with 1% of O2 for 8 hours as a hypoxic group. The other group is treated with 1 μM of 2-ME2 for 16 hours and then cultured with 1% of O2 for 8 hours as a 2-ME2 treated hypoxic group.
# [1] = 1 mg/kg, 7 days after the injection, FIGS. 18A, 18B
SMILES,"exposure time at which the NSCs express the most Bmi-1 (Bmi-1; 1 μM, 0.5 to 24 hours tested, FIG. 10C) [h]","Bmi-1 expressions of the NSCs (Bmi-1; 0.1, 1, 10, 100 μM, normoxia (21% O2), in particular 1 μM, FIG. 10A)","effect on the reduction of the infarction area, compared with genipin (ischemic rats; 1 mg/kg Compound 1 vs 30 mg/kg genipin, 7 days)",area of the largest infarction (MRI) (ischemic rats; [1]),volume of the infarction (MRI) (ischemic rats; [1]),translocation of the HIF-1α to the nucleus under hypoxia (HIF-1α),"enhancement of the Bmi-1 expressions induced by the Compound 1 in NSCs (Bmi-1; 1 μM 2-ME2 for 16 hours, then 1 μM Compound 1, FIG. 10B)","Compound-1-induced reduction of the volume of the infarction (MRI) (ischemic rats; 100 mg/kg 2-ME2 plus 1 mg/kg Compound 1, 7 days)"
COC(=O)C1=CO[C@@H](O)[C@@H]2C(COC(=O)[C@@H](N)Cc3ccccc3)=CC[C@H]12 [Compound 1],16,increased,better than that of the genipin,significantly reduced,significantly reduced,,,
"COc1cc2c(cc1O)CC[C@@H]1[C@@H]2CC[C@]2(C)[C@@H](O)CC[C@@H]12 [Compound 2-ME2, 2-Methoxyestradiol, reference compound]",,,,,,abolishes the translocation,abolished,abolishes
